We go through 21 compounds from patent publication US9428492B2, “Secondary alcohol substituted triazoles as PDE10 inhibitors” (Merck Sharp & Dohme Corp., priority 2012, dated 2016).

The term Ki denotes the equilibrium dissociation constant of an inhibitor or competing ligand from its target.

Chain of human PDE10A2 (Q9Y233 267-1055): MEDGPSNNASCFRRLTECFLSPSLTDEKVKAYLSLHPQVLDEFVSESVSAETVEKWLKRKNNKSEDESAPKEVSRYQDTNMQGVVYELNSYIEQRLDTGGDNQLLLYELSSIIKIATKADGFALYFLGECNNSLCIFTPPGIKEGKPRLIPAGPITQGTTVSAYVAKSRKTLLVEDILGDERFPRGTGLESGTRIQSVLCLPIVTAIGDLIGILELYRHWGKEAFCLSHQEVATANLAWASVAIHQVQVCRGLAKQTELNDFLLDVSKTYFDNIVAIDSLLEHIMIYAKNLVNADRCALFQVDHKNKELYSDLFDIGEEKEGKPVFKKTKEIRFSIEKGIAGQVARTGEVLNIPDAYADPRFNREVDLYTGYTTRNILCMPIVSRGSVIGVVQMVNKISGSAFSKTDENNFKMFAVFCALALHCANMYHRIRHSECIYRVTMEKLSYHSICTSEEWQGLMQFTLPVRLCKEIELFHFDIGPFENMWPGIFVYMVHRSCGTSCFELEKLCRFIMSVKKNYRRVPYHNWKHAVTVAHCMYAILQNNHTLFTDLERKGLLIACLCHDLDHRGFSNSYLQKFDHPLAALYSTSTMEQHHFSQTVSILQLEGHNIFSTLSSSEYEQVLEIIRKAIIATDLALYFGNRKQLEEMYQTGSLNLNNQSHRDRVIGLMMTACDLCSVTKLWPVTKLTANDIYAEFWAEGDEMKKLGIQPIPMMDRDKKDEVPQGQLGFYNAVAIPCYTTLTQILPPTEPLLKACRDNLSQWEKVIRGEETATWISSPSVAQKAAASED

The target in the assay is human PDE10A2 (Homo sapiens (Human), UniProt Q9Y233). The assay can be described thus: PDE10 fluorescence polarization (IMAP FP) inhibition assay. It counts as biochemical. The following applies: read-out: PDE10a Ki. The method, then:
The activity of the compounds in accordance with the present invention as PDE10 inhibitors may be readily determined without undue experimentation using a fluorescence polarization (FP) methodology that is well known in the art (Huang, W., et al., J. Biomol Screen, 2002, 7: 215).
In a typical experiment the PDE10 inhibitory activity of the compounds of the present invention was determined in accordance with the following experimental method. PDE10A2 was amplified from human fetal brain cDNA (Clontech, Mountain View, Calif.) using a forward primer corresponding to nucleotides 56-77 of human PDE10A2 (Accession No. AF127480, Genbank Identifier 4894716), containing a Kozak consensus sequence, and a reverse primer corresponding to nucleotides 2406-2413 of human PDE10A2 (Accession No. AF127480, Genbank Identifier 4894716). Amplification with Easy-A polymerase (Stratagene, La Jolla, Calif.) was 95° C. for 2 minutes followed by thirty three cycles of 95° C. for 40 seconds, 55° C. for 30 seconds, and 72° C. for 2 minutes 48 seconds. Final extension was 72° C. for 7 minutes. The PCR product was TA cloned into pcDNA3.2-TOPO (Invitrogen, Carlsbad, Calif.) according to standard protocol. AD293 cells with 70-80% confluency were transiently transfected with human PDE10A2/pcDNA3.2-TOPO using Lipofectamine 2000 according to manufacturer specifications (Invitrogen, Carlsbad, Calif.). Cells were harvested 48 hours post-transfection and lysed by sonication (setting 3, 10×5 sec pulses) in a buffer containing 20 mM HEPES, 1 mM EDTA and protease inhibitor cocktail (Roche). Lysate was collected by centrifugation at 75,000×g for 20 minutes. Supernatant containing the cytoplasmic fraction was used for evaluation of PDE10A2 activity. The fluorescence polarization assay for cyclic nucleotide phosphodiesterases was performed using an IMAP® FP kit supplied by Molecular Devices, Sunnyvale, Calif. (product # R8139). IMAP® technology has been applied previously to phosphodiesterase assays (Huang, W., et al., J. Biomol Screen, 2002, 7: 215). Assays were performed at room temperature in 384-well microtiter plates with an incubation volume of 20.2 μL. Solutions of test compounds were prepared in DMSO and serially diluted with DMSO to yield 8 μL of each of 10 solutions differing by 3-fold in concentration, at 32 serial dilutions per plate. […] 0% of inhibition is determined by using DMSO (1% final concentrations).
A Labcyte Echo 555 (Labcyte, Sunnyvale, Calif.) is used to dispense 200 nL from each well of the titration plate to the 384 well assay plate. A solution of enzyme (1/1600 dilution from aliquots; sufficient to produce 20% substrate conversion) and a separate solution of FAM-labeled cAMP PDE from Molecular Devices (product # R7506), at a final concentration of 50 nM are made in the assay buffer (10 mM Tris HCl, pH 7.2, 10 mM MgCl2, 0.05% NaN3 0.01% Tween-20, and 1 mM DTT). The enzyme and the substrate are then added to the assay plates in two consecutive additions of 10 μL, and then shaken to mix. The reaction is allowed to proceed at room temperature for 30 minutes. […] The enzymatic reaction is stopped by addition of 60 μL of the binding solution to each well of the assay plates and the plates are sealed and shaken for 10 seconds. The plate was incubated at room temperature for at least one hour prior to determining the fluorescence polarization (FP). The parallel and perpendicular fluorescence of each well of the plate was measured using a Perkin Elmer EnVision™ plate reader (Waltham, Mass.).
Fluorescence polarization (mP) was calculated from the parallel (S) and perpendicular (P) fluorescence of each sample well and the analogous values for the median control well, containing only substrate (So and Po), using the following equation: Polarization (mP)=1000*(S/So−P/Po)/(S/So+P/Po).
Dose-inhibition profiles for each compound were characterized by fitting the mP data to a four-parameter equation given below.
(Polarisation of emitted light reports the rotation of a fluorescent probe.)
As for `COc1nc(N2CC(c3nc4ccccc4n3C)C2)cc(-n2nc(C)nc2C(C)O)n1` (stereo not drawn) [Example 9, 1-(1-(2-methoxy-6-(3-(1-methyl-1H-benzo[d]imidazol-2-yl)azetidin-1-yl)pyrimidin-4-yl)-3-methyl-1H-1,2,4-triazol-5-yl)ethanol], the Ki came to 1200 pM.

As to `Cc1nc(C(C)O)n(-c2cc(N3CC(c4nc5ccccc5n4C)C3)nc(C3CC3)n2)n1` (stereo not drawn) [Example 10, 1-(1-(2-cyclopropyl-6-(3-(1-methyl-1H-benzo[d]imidazol-2-yl)azetidin-1-yl)pyrimidin-4-yl)-3-methyl-1H-1,2,4-triazol-5-yl)ethanol], the Ki was found to be 210 pM. The value for `CCC(O)c1nc(C)nn1-c1cc(N2CC(c3nc4ccccc4n3C)C2)nc(C)n1` (stereo not drawn) [Example 4, 1-(3-methyl-1-(2-methyl-6-(3-(1-methyl-1H-benzo[d]imidazol-2-yl)azetidin-1-yl)pyrimidin-4-yl)-1H-1,2,4-triazol-5-yl)propan-1-ol] was 510 pM; that for `Cc1nc(C2C[C@H]2c2nc3ccccc3n2C)cc(-n2nc(C)nc2C(O)C(F)(F)F)n1` (stereo partly drawn) [Example 20, 2,2,2-trifluoro-1-(3-methyl-1-(2-methyl-6-((1R,2R)-2-(1-methyl-1H-benzo[d]imidazol-2-yl)cyclopropyl)pyrimidin-4-yl)-1H-1,2,4-triazol-5-yl)ethanol] was 550 pM; that for `Cc1nc(N2CC(c3nc4ccccc4n3C)C2)cc(-n2nc(C)nc2C(O)CC(F)(F)F)n1` (single isomer, unassigned) [Example 7b, 3,3,3-trifluoro-1-(3-methyl-1-(2-methyl-6-(3-(1-methyl-1H-benzo[d]imidazol-2-yl)azetidin-1-yl)pyrimidin-4-yl)-1H-1,2,4-triazol-5-yl)propan-1-ol] was 2500 pM. The result for `Cc1nc(N2CC(c3nc4ccccc4n3C)C2)cc(-n2nc(C)nc2C(O)C(C)C)n1` (stereo not drawn) [Example 5, 2-methyl-1-(3-methyl-1-(2-methyl-6-(3-(1-methyl-1H-benzo[d]imidazol-2-yl)azetidin-1-yl)pyrimidin-4-yl)-1H-1,2,4-triazol-5-yl)propan-1-ol] reads 410 pM. `Cc1nc(C2C[C@H]2c2nc3ccccc3n2C)cc(-n2nc(C)nc2C(O)C(F)(F)F)n1` (single isomer, unassigned) [Example 20b]: the inhibition constant (Ki) came to 920 pM. The value for `Cc1nc(C(C)O)n(-c2cc(N3CC(c4nc5ccccc5n4C)C3)nc(C(F)(F)F)n2)n1` (single isomer, unassigned) [Example 8b, 1-(3-methyl-1-(6-(3-(1-methyl-1H-benzo[d]imidazol-2-yl)azetidin-1-yl)-2-(trifluoromethyl)pyrimidin-4-yl)-1H-1,2,4-triazol-5-yl)ethanol] was 1000 pM; that for `Cc1nc(N2CC(c3nc4ccccc4n3C)C2)cc(-n2nc(C)nc2C(O)C2CC2)n1` (single isomer, unassigned) [Example 6b, cyclopropyl(3-methyl-1-(2-methyl-6-(3-(1-methyl-1H-benzo[d]imidazol-2-yl)azetidin-1-yl)pyrimidin-4-yl)-1H-1,2,4-triazol-5-yl)methanol] was 2600 pM; that for `Cc1nc(C2C[C@H]2c2nc3ccccc3n2C)cc(-n2nc(C)nc2C(O)C(F)(F)F)n1` (single isomer, unassigned) [Example 20a] was 580 pM.

Consider `Cc1nc(N2CC(c3nc4ccccc4n3C)C2)cc(-n2nc(C)nc2C(O)CC(F)(F)F)n1` (stereo not drawn) [Example 7, 3,3,3-trifluoro-1-(3-methyl-1-(2-methyl-6-(3-(1-methyl-1H-benzo[d]imidazol-2-yl)azetidin-1-yl)pyrimidin-4-yl)-1H-1,2,4-triazol-5-yl)propan-1-ol], for which the Ki stood at 3200 pM. The result for `Cc1nc([C@H](C)O)n(-c2cc([C@@H]3C[C@H]3c3nc4ccccc4n3C)nc(C3CC3)n2)n1` [Example 18, (S)-1-(1-(2-cyclopropyl-6-((1R,2R)-2-(1-methyl-1H-benzo[d]imidazol-2-yl)cyclopropyl)pyrimidin-4-yl)-3-methyl-1H-1,2,4-triazol-5-yl)ethanol] reads 360 pM; that for `Cc1nc(C(C)O)n(-c2cc(N3CC(c4nc5ccccc5n4C)C3)nc(C3CC3)n2)n1` (single isomer, unassigned) [Example 10a, 1-(1-(2-cyclopropyl-6-(3-(1-methyl-1H-benzo[d]imidazol-2-yl)azetidin-1-yl)pyrimidin-4-yl)-3-methyl-1H-1,2,4-triazol-5-yl)ethanol], 130 pM; that for `Cc1nc(N2CC(c3nc4ccccc4n3C)C2)cc(-n2nc(C)nc2C(O)CF)n1` (stereo not drawn) [Example 12, 2-fluoro-1-(3-methyl-1-(2-methyl-6-(3-(1-methyl-1H-benzo[d]imidazol-2-yl)azetidin-1-yl)pyrimidin-4-yl)-1H-1,2,4-triazol-5-yl)ethanol], 340 pM. The result for `Cc1nc([C@@H]2C[C@H]2c2nc3ccccc3n2C)cc(-n2nc(C)nc2[C@H](O)c2ccccc2)n1` [Example 15, (R)-(3-methyl-1-(2-methyl-6-((1R,2R)-2-(1-methyl-1H-benzo[d]imidazol-2-yl)cyclopropyl)pyrimidin-4-yl)-1H-1,2,4-triazol-5-yl)(phenyl)methanol] reads 90 pM.

Regarding `Cc1nc(N2CC(c3nc4ccccc4n3C)C2)cc(-n2nc(C)nc2C(O)C(F)F)n1` (single isomer, unassigned) [Example 11a, 2,2-difluoro-1-(3-methyl-1-(2-methyl-6-(3-(1-methyl-1H-benzo[d]imidazol-2-yl)azetidin-1-yl)pyrimidin-4-yl)-1H-1,2,4-triazol-5-yl)ethanol], the Ki turned out to be 650 pM.

As to `Cc1nc(C(C)O)n(-c2cc(N3CC(c4nc5ccccc5n4C)C3)nc(C3CC3)n2)n1` (single isomer, unassigned) [Example 10b, 1-(1-(2-cyclopropyl-6-(3-(1-methyl-1H-benzo[d]imidazol-2-yl)azetidin-1-yl)pyrimidin-4-yl)-3-methyl-1H-1,2,4-triazol-5-yl)ethanol], the Ki worked out at 390 pM. For the compound `Cc1nc(C(C)O)n(-c2cc(N3CC(c4nc5ccccc5n4C)C3)nc(C(F)(F)F)n2)n1` (stereo not drawn) [Example 8, 1-(3-methyl-1-(6-(3-(1-methyl-1H-benzo[d]imidazol-2-yl)azetidin-1-yl)-2-(trifluoromethyl)pyrimidin-4-yl)-1H-1,2,4-triazol-5-yl)ethanol], the Ki stood at 830 pM. The value for `Cc1nc(N2CC(c3nc4ccccc4n3C)C2)cc(-n2nc(C)nc2C(O)CC(F)(F)F)n1` (single isomer, unassigned) [Example 7a, 3,3,3-trifluoro-1-(3-methyl-1-(2-methyl-6-(3-(1-methyl-1H-benzo[d]imidazol-2-yl)azetidin-1-yl)pyrimidin-4-yl)-1H-1,2,4-triazol-5-yl)propan-1-ol] was 4500 pM.

As to `CCC(O)c1nc(C)nn1-c1cc(N2CC(c3nc4ccccc4n3C)C2)nc(C)n1` (single isomer, unassigned) [Example 4a, 1-(3-methyl-1-(2-methyl-6-(3-(1-methyl-1H-benzo[d]imidazol-2-yl)azetidin-1-yl)pyrimidin-4-yl)-1H-1,2,4-triazol-5-yl)propan-1-ol], the Ki came out at 1800 pM. The result for `Cc1nc(C(C)O)n(-c2cc(N3CC(c4nc5ccccc5n4C)C3)nc(C(F)(F)F)n2)n1` (single isomer, unassigned) [Example 8a, 1-(3-methyl-1-(6-(3-(1-methyl-1H-benzo[d]imidazol-2-yl)azetidin-1-yl)-2-(trifluoromethyl)pyrimidin-4-yl)-1H-1,2,4-triazol-5-yl)ethanol] reads 530 pM.
